Legend:
RIPK1 = RIPK1 (Homo sapiens (Human), UniProt Q13546); assay: ADP-Glo kinase assay, RIPK1 activity; assay type: biochemical; settings: 5 nM RIPK1, 50 μM ATP, 6 hr reaction
Method: In order to measure RIPK1 activity the ADP-Glo kinase assay (Promega, Catalog #V7002) was used to measure the conversion of ATP to ADP. This enzymatic assay was performed in a 384-well white, Optiplate (Perkin Elmer, Catalog #6007299) with assay buffer consisting of 50 mM HEPES pH 7.5 (Gibco, Catalog #15630-080), 50 mM NaCl (Teknova, Catalog #S0252), 30 mM MgCl2 (Ambion, Catalog #AM9530G), 1 mM DTT (Santa Cruz Biotechnology, Catalog #sc-29089), 0.05% BSA (Sigma, Catalog #A3059-50G) and 0.02% CHAPS (Sigma, Catalog #C5070-5G). Stock solutions of the test compounds were prepared in 100% DMSO (Sigma, Catalog #D2650) and serially diluted 1:3 using 100% DMSO. Compounds were additionally diluted 1:40 in assay buffer, and 2 μL/well were transferred to the assay plate. 4 μL/well (final concentration of 5 nM) of RIPK1 protein (SignalChem, Catalog #R07-11G-05) diluted in assay buffer and added to the assay plate followed by a 10 minute preincutation at room temperature. 4 μL/well of ATP (Promega, Catalog #V7002) (final concentration of 50 μM) diluted in assay buffer were then added to the assay plate followed by a 6 hr reaction time. Final concentrations of RIPK1 and ATP refer to a 10 μL volume. Luminescence was measured using a BioTek Synergy™ NEO plate reader. IC50 values were calculated using a four-parameter logistic curve fit using Genedata Screener software.

U937 cells = assay: Human U937 cellular necroptosis assay; assay type: cell-based; settings: U-937; U937 cells stimulated with 25 ng/mL human TNFalpha and 25 μM z-VAD-FMK; 22 hr; Cell Titer-Glo viability
Method: Human U937 Cellular Necroptosis Assay
The human monocytic cell line U937 (CRL-1593.2) may be purchased from ATCC. The cells are routinely maintained in RPMI-1640 Medium (Gibco, Catalog #11875-093) supplemented with 10% heat inactivated fetal bovine serum (Gibco, Catalog #16140-071), 100 units/mL penicillin and 100 μg/mL streptomycin (Gibco, Catalog #15140-122), in a humidified incubator (37° C., 5% CO2). For the assay, cells are resuspended in RPMI-1640 phenol red free Media (Gibco, Catalog #11835-030) supplemented with 10% fetal bovine serum (Sigma, Catalog #F2442), 100 units/mL penicillin and 100 ug/mL streptomycin. […] Stock solutions of the test compounds are prepared in 100% DMSO (Sigma, Catalog #D2650) and serially diluted 1:3 using 100% DMSO. Compounds are additionally diluted 1:40 in assay medium, and 10 μL/well was transferred to the plate. Following the compound addition, the plate is incubated at 37° C. and 5% CO2 for 22 hr. After 22 hr, viability is assessed with the addition of 20 μL of Cell Titer-Glo 2.0 (Promega, Catalog #G9243). The tissue culture plate is shaken on an orbital shaker at 300 RPM for 15 minutes at room temperature in the dark. Luminescence is measured using a PerkinElmer Envision™ plate reader. IC50 values are calculated using a four-parameter logistic curve fit using Genedata Screener software.

Sequence of RIPK1 (Q13546 1-327): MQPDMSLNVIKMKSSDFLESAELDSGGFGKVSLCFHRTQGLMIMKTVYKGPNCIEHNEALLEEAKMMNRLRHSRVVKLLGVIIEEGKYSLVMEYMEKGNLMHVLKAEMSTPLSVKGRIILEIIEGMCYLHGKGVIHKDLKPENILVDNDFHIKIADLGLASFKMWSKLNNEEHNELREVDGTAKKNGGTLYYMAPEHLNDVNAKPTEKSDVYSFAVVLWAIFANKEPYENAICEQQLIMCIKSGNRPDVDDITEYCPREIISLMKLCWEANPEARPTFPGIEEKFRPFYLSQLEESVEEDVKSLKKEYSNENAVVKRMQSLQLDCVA

Compound	IC50 (RIPK1) [nM]	IC50 (U937 cells) [nM]
Cc1cc(C(=O)Nc2cccc(Cl)c2F)nn1Cc1ccccc1 [Example 5, 1-benzyl-N-(3-chloro-2-fluoro-phenyl)-5-methyl-pyrazole-3-carboxamide]	14500	–
Cc1c(F)c(C(=O)Nc2cccc(Cl)c2F)nn1Cc1ccccc1 [Example 6, 1-Benzyl-N-(3-chloro-2-fluorophenyl)-4-fluoro-5-methyl-1H-pyrazole-3-carboxamide]	920	–
O=C(Nc1cccc(Cl)c1F)c1ccn(Cc2ccccc2)n1 [Example 7, 1-Benzyl-N-(3-chloro-2-fluorophenyl)-1H-pyrazole-3-carboxamide]	12100	–
Cn1cc(Cn2nc3c(c2Cl)CCN(c2cccc(Cl)c2F)C3=O)cn1 [Example 68, 3-chloro-6-(3-chloro-2-fluorophenyl)-2-((1-methyl-1H-pyrazol-4-yl)-methyl)-2,4,5,6-tetrahydro-7H-pyrazolo[3,4-c]pyridin-7-one]	–	1340
O=C1c2nn(CC3CCCOC3)c(Cl)c2CCN1c1cccc(Cl)c1F (centres unmarked) [Example 69, 3-chloro-6-(3-chloro-2-fluorophenyl)-2-((tetrahydro-2H-pyran-3-yl)methyl)-2,4,5,6-tetrahydro-7H-pyrazolo[3,4-c]pyridin-7-one]	–	563
Cc1c2c(nn1Cc1ccccc1)C(=O)N(c1cccc(Cl)c1F)CC2 [Example 70, 2-benzyl-6-(3-chloro-2-fluorophenyl)-3-methyl-2,4,5,6-tetrahydro-7H-pyrazolo[3,4-c]pyridin-7-one]	–	233
N#Cc1c2c(nn1Cc1ccccc1)C(=O)N(c1cccc(Cl)c1F)CC2 [Example 71, 2-benzyl-6-(3-chloro-2-fluorophenyl)-7-oxo-4,5,6,7-tetrahydro-2H-pyrazolo[3,4-c]pyridine-3-carbonitrile]	–	256
NCc1c2c(nn1Cc1ccccc1)C(=O)N(c1cccc(Cl)c1F)CC2 [Example 72, 3-(aminomethyl)-2-benzyl-6-(3-chloro-2-fluorophenyl)-2,4,5,6-tetrahydro-7H-pyrazolo[3,4-c]pyridin-7-one]	–	6110
O=C1c2nn(Cc3ccccc3)c(CO)c2CCN1c1cccc(Cl)c1F [Example 73, 2-benzyl-6-(3-chloro-2-fluorophenyl)-3-(hydroxymethyl)-2,4,5,6-tetrahydro-7H-pyrazolo[3,4-c]pyridin-7-one]	–	348
O=C1c2nn(Cc3ccccc3)c(C(F)F)c2CCN1c1cccc(Cl)c1F [Example 74, 2-Benzyl-6-(3-chloro-2-fluorophenyl)-3-(difluoromethyl)-2,4,5,6-tetrahydro-7H-pyrazolo[3,4-c]pyridin-7-one]	–	42
O=C1c2nn(Cc3ncccc3F)c(Cl)c2CCN1c1cc(CO)cc(Cl)c1F [Example 76, 3-chloro-6-(3-chloro-2-fluoro-5-(hydroxymethyl)phenyl)-2-((3-fluoropyridin-2-yl)methyl)-2,4,5,6-tetrahydro-7H-pyrazolo[3,4-c]pyridin-7-one]	–	917
O=C1c2nn(Cc3ncccc3F)cc2CCN1c1cc(CO)cc(Cl)c1F [Example 77, 6-(3-chloro-2-fluoro-5-(hydroxymethyl)phenyl)-2-((3-fluoropyridin-2-yl)methyl)-2,4,5,6-tetrahydro-7H-pyrazolo[3,4-c]pyridin-7-one]	–	594
CN(C)Cc1cc(Cl)c(F)c(N2CCc3c(nn(Cc4ncccc4F)c3Cl)C2=O)c1 [Example 78, 3-chloro-6-(3-chloro-5-((dimethylamino)methyl)-2-fluorophenyl)-2-((3-fluoropyridin-2-yl)methyl)-2,4,5,6-tetrahydro-7H-pyrazolo[3,4-c]pyridin-7-one]	–	> 10000
O=C1c2nn(Cc3cccc(F)c3F)c(Cl)c2CCN1c1cc(CO)cc(Cl)c1F [Example 79, 3-chloro-6-(3-chloro-2-fluoro-5-(hydroxymethyl)phenyl)-2-(2,3-difluorobenzyl)-2,4,5,6-tetrahydro-7H-pyrazolo[3,4-c]pyridin-7-one]	–	346
COCCOCc1cc(Cl)c(F)c(N2CCc3c(nn(Cc4cccc(F)c4F)c3Cl)C2=O)c1 [Example 80, 3-chloro-6-(3-chloro-2-fluoro-5-((2-methoxyethoxy)methyl)phenyl)-2-(2,3-difluorobenzyl)-2,4,5,6-tetrahydro-7H-pyrazolo[3,4-c]pyridin-7-one]	–	958
COCc1cc(Cl)c(F)c(N2CCc3c(nn(Cc4cccc(F)c4F)c3Cl)C2=O)c1 [Example 81, 3-chloro-6-(3-chloro-2-fluoro-5-(methoxymethyl)phenyl)-2-(2,3-difluorobenzyl)-2,4,5,6-tetrahydro-7H-pyrazolo[3,4-c]pyridin-7-one]	–	> 10000
O=C1c2nn(Cc3cccc(F)c3F)c(Cl)c2CCN1c1cc(Cn2ccnc2)cc(Cl)c1F [Example 82, 6-(5-((1H-imidazol-1-yl)methyl)-3-chloro-2-fluorophenyl)-3-chloro-2-(2,3-difluorobenzyl)-2,4,5,6-tetrahydro-7H-pyrazolo[3,4-c]pyridin-7-one]	–	863
O=C1c2nn(Cc3cccc(F)c3F)c(Cl)c2CCN1c1cc(CNCC(F)(F)F)cc(Cl)c1F [Example 83, 3-chloro-6-(3-chloro-2-fluoro-5-(((2,2,2-trifluoroethyl)amino)methyl)phenyl)-2-(2,3-difluorobenzyl)-2,4,5,6-tetrahydro-7H-pyrazolo[3,4-c]pyridin-7-one]	–	1230
N#CCc1cc(Cl)c(F)c(N2CCc3c(nn(Cc4cccc(F)c4F)c3Cl)C2=O)c1 [Example 84, 2-(3-chloro-5-(3-chloro-2-(2,3-difluorobenzyl)-7-oxo-2,4,5,7-tetrahydro-6H-pyrazolo[3,4-c]pyridin-6-yl)-4-fluorophenyl)acetonitrile]	–	142
CC(=O)NCc1cc(Cl)c(F)c(N2CCc3c(nn(Cc4cccc(F)c4F)c3Cl)C2=O)c1 [Example 85, N-(3-chloro-5-(3-chloro-2-(2,3-difluorobenzyl)-7-oxo-2,4,5,7-tetrahydro-6H-pyrazolo[3,4-c]pyridin-6-yl)-4-fluorobenzyl)acetamide]	–	1040
Cc1cnc(Cn2cnc(C(=O)Nc3cccc(Cl)c3F)n2)cn1 [Example 91, N-(3-chloro-2-fluorophenyl)-1-((5-methylpyrazin-2-yl)methyl)-1H-1,2,4-triazole-3-carboxamide]	–	2560
NCc1cc(Cl)c(F)c(NC(=O)c2ncn(Cc3ccccc3)n2)c1 [Example 92, N-(5-(aminomethyl)-3-chloro-2-fluorophenyl)-1-benzyl-1H-1,2,4-triazole-3-carboxamide]	–	1650
CS(=O)(=O)NCc1cc(Cl)c(F)c(NC(=O)c2ncn(Cc3ccccc3)n2)c1 [Example 93, 1-Benzyl-N-(3-chloro-2-fluoro-5-(methylsulfonamidomethyl)phenyl)-1H-1,2,4-triazole-3-carboxamide]	–	1500
O=C(Nc1cc(CO)cc(Cl)c1F)c1ncn(Cc2ccccc2)n1 [Example 94, 1-Benzyl-N-(3-chloro-2-fluoro-5-(hydroxymethyl)phenyl)-1H-1,2,4-triazole-3-carboxamide]	–	797
COCCOCc1cc(Cl)c(F)c(NC(=O)c2ncn(Cc3ccccc3)n2)c1 [Example 95]	–	529
N#CCc1cc(Cl)c(F)c(NC(=O)c2ncn(Cc3ccccc3)n2)c1 [Example 96, 1-Benzyl-N-(3-chloro-5-(cyanomethyl)-2-fluorophenyl)-1H-1,2,4-triazole-3-carboxamide]	–	347
O=C(Nc1cc(Cn2ccnc2)cc(Cl)c1F)c1ncn(Cc2ccccc2)n1 [Example 97, N-(5-((1H-imidazol-1-yl)methyl)-3-chloro-2-fluorophenyl)-1-benzyl-1H-1,2,4-triazole-3-carboxamide]	–	1180
O=C(Nc1cc(Cn2cnc3ccccc32)cc(Cl)c1F)c1ncn(Cc2ccccc2)n1 [Example 98, N-(5-((1H-benzo[d]imidazol-1-yl)methyl)-3-chloro-2-fluorophenyl)-1-benzyl-1H-1,2,4-triazole-3-carboxamide]	–	3860
O=C(Nc1cc(Cn2cccn2)cc(Cl)c1F)c1ncn(Cc2ccccc2)n1 [Example 99, N-(5-((1H-pyrazol-1-yl)methyl)-3-chloro-2-fluorophenyl)-1-benzyl-1H-1,2,4-triazole-3-carboxamide]	–	2540
